Measurements published in US20140187556A1, “ANTI-AMYLOID COMPOUNDS AND METHODS” (Treventis Corporation, priority 2011, published 2014).

Target: T1, Aβ40 (Homo sapiens, UniProt P05067)
T1 construct: pre-treated Aβ40 (40 μM in 20 mM Tris, pH 7.4)
Assay: Thioflavin T (ThT) Aβ aggregation assay
Assay type: biochemical
Details: 20 μM Aβ40, 37 degrees C
Protocol: Aβ40 (1.0 mg) was pre-treated in a 1.5 mL microfuge tube with HFIP (1 mL) and sonicated for 20 min to disassemble any pre-formed Aβ aggregates. The HFIP was removed with a stream of argon and the Aβ dissolved in Tris base (5.8 mL, 20 mM, pH ˜10). The pH was adjusted to 7.4 with concentrated HCl (−10 μL) and the solution filtered using a syringe filter (0.2 μm) before being used.
The kinetic ThT assay for Aβ aggregation is similar to that of Chalifour et al (Chalifour et al, 2003, J. Biol. Chem. 278:34874-81). Briefly, pre-treated Aβ40 (40 μM in 20 mM Tris, pH 7.4), was diluted with an equal volume of 8 μM ThT in Tris (20 mM, pH 7.4, 300 mM NaCl). Aliquots of Aβ/ThT (200 μL) were added to wells of a black polystyrene 96-well plate, followed by 2 μL of a compound in DMSO (variable concentration), or DMSO alone (controls). Incubations were performed in triplicate and were taken to contain 20 μM Aβ, various concentration of compound in 20 mM Tris, pH 7.4, 150 mM NaCl, 1% DMSO. Plates were covered with clear polystyrene lids and incubated at 37 degrees C. in a Tecan Genios microplate reader. Fluorescence readings (λex=450 nm, λem=480 nm) were taken every 15 min., after first shaking at high intensity for 15 s and allowing to settle for 10 s before each reading. Active compounds attenuated the increase in fluorescence over time that occurred in controls.

T1 sequence (P05067 672-711 limits assumed): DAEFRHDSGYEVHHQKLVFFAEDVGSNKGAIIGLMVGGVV

Row | SMILES | IC50 [µM]
1 | CN1CCN(c2cc(N3CCN(C(=O)c4ccccc4)CC3)ccc2[N+](=O)[O-])CC1 [TRV 1146, (4-(3-(4-methylpiperazin-1-yl)-4-nitrophenyl)piperazin-1-yl)(phenyl)methanone] | > 10
2 | O=[N+]([O-])c1ccc(-c2cccc(C(O)C(F)(F)F)c2)cc1N1CCCC1 (stereo not shown) [TRV 1155, 2,2,2-trifluoro-1-(4′-nitro-3′-(pyrrolidin-1-yl)-[1,1′-biphenyl]-3-yl)ethanol] | 6.65 ± 1.97
3 | CC(C)Nc1cc(N2CCN(C(=O)c3ccccc3)CC2)cc(F)c1C(F)(F)F [TRV 1176, (4-(3-fluoro-5-(isopropylamino)-4-(trifluoromethyl)phenyl)piperazin-1-yl)(phenyl)methanone] | > 50
4 | O=C(c1ccccc1)N1CCN(c2ccc([N+](=O)[O-])c(N3CCOCC3)c2)CC1 [TRV 1138, (4-(3-morpholino-4-nitrophenyl)piperazin-1-yl)(phenyl)methanone] | > 10
5 | O=C(c1ccccc1)N1CCN(c2ccc(-n3cnnn3)c(NCc3ccccc3)c2)CC1 [TRV 1178, (4-(3-(benzylamino)-4-(1H-tetrazol-1-yl)phenyl)piperazin-1-yl)(phenyl)methanone] | > 50
6 | O=C(c1ccccc1)N1CCN(c2cc(F)cc(N3CCCC3)c2)CC1 [TRV 1170, (4-(3-fluoro-5-(pyrrolidin-1-yl)phenyl)piperazin-1-yl)(phenyl)methanone] | > 50
7 | O=C(c1ccccc1)N1CCN(c2cc(F)c(C(F)(F)F)c(N3CCCC3)c2)CC1 [TRV 1175, (4-(3-fluoro-5-(pyrrolidin-1-yl)-4-(trifluoromethyl)phenyl)piperazin-1-yl)(phenyl)methanone] | > 50
8 | CC(C)Nc1cc(N2CCN(C(=O)c3ccccc3)CC2)ccc1C(F)(F)F [TRV 1166, (4-(3-(isopropylamino)-4-(trifluoromethyl)phenyl)piperazin-1-yl)(phenyl)methanone] | > 50
9 | CCNC(=O)c1cccc(-c2ccc([N+](=O)[O-])c(NCc3ccccc3)c2)c1 [TRV 1116, 3′-(benzylamino)-N-ethyl-4′-nitrobiphenyl-3-carboxamide] | > 50
10 | N#Cc1cccc(-c2ccc([N+](=O)[O-])c(NCc3ccccc3)c2)c1 [TRV 1136, 3′-(benzylamino)-4′-nitrobiphenyl-3-carbonitrile] | > 50
11 | CN(c1cc(N2CCN(C(=O)c3ccccc3)CC2)ccc1[N+](=O)[O-])C1CCC1 [TRV 1154, (4-(3-(cyclobutyl(methyl)amino)-4-nitrophenyl)piperazin-1-yl)(phenyl)methanone] | 11.6 ± 1.24
12 | CC(O)c1cccc(-c2ccc(OC(F)F)c(NCc3ccccc3)c2)c1 (stereo not shown) [TRV 1192, 1-(3′-(benzylamino)-4′-(difluoromethoxy)biphenyl-3-yl)ethanol] | ~50
13 | N#Cc1ccc(-c2cccc(C(=O)O)c2)cc1NCc1ccccc1 [TRV 1128, 3′-(benzylamino)-4′-cyanobiphenyl-3-carboxylic acid] | > 50
